# Legend:
# [1] = system: Cavendish bananas; assay: Storage of harvested Cavendish bananas in banavac polyethylene bags in containers with or without ozone; conditions: Container 7: 200 to 300 parts per billion ozone in surrounding atmosphere; polyethylene bags tied closed; regular atmosphere (20.8 percent oxygen); 56 days of storage; versus Container 8 without ozone
# Source text: Experimental conditions included loading harvested Cavendish bananas in polyethylene bags (known as “banavac” bags) into two containers, both having a regular atmosphere (containing 20.8 percent oxygen), with vents partially opened for the first four weeks and completely closed for the last four weeks of the experimental period. The experimental difference between the containers was the maintenance of 200 to 300 parts per billion of ozone in Container 7, and the absence of ozone from Container 8.
# Container 8 in the experiment detailed in FIG. 3 was loaded with bananas in modified atmosphere packaging (here, polyethylene bags tied closed with a knot). The bananas were stored in the container without added ozone. At 56 days after harvest, all of the bananas were spoiled to the point of liquefaction.
# Container 7 in the experiment detailed in FIG. 3 was loaded with bananas in modified atmosphere packaging (here also, polyethylene bags tied closed with a knot). According to an embodiment of the present invention, the bags of bananas in Container 7 were exposed to a surrounding atmosphere containing an ozone level of 200 to 300 parts per billion.
# [2] = system: bananas; assay: Addition of ozone to controlled-atmosphere and regular-atmosphere containers of bananas; conditions: ozone added
# Protocol: In another embodiment, a controlled-atmosphere shipping container is filled with bananas packaged in perforated bags, and ozone is added to the controlled atmosphere. If a non-ozonated controlled-atmosphere container is well sealed, ethylene will accumulate, offsetting the benefit of slowed respiration afforded by the controlled atmosphere.
compound,measurement,setting,value
O=[O+][O-] [ozone],condition of the bananas after storage,[1],markedly superior condition compared to that of the control bananas
same,climacteric ripening of bananas,[2],delay climacteric ripening of bananas
same,overall ethylene levels in containers,[2],reduce overall ethylene levels

# Reference: US20080166694A1, “Plant tissue packaging process” (priority 2007, published 2008)
